Experimental data from patent publication US11060059B2, “Methods of producing T cell populations enriched for stable regulatory T-cells” (The USA, as represented by the Secretary, Department of …, priority 2011, dated 2021).

System: Foxp3+Helios+ Tregs
Test: Foxp3 and Helios staining (flow cytometry) of Tregs stimulated/expanded in vitro with anti-CD3/anti-CD28 and IL-2
Format: cell-based, human
Text: To determine if a correlation exists between Helios expression and TSDR methylation status, four different CD4^+ subsets (Foxp3^+Helios^+, Foxp3^+Helios^−, Foxp3^−Helios^+, and Foxp3^−Helios^−) were isolated and expression of various proteins analyzed. Briefly, human PBMCs were obtained from 20-80 year-old healthy male donors by Department of Transfusion Medicine at National Institutes of Health. CD4^+CD25^hiCD127^− Tregs were isolated by cell sorting on a FACSAria. Sorted Treg (0.2×10^6) cells were re-suspended in complete RPMI-1640 supplemented with 10% heat-inactivated fetal calf serum, and stimulated in plates coated with anti-CD3ϵ (10 μg/ml) and anti-CD28 (2 μg/ml) in the presence of IL-2 (150 U/ml) for 5-6 days. Stimulated cells were washed in RPMI 1640-10 media twice and expanded in complete RPMI 1640-10 with recombinant IL-2 (150 U/ml) for 5-10 days in the presence of Treg-expander magnetic beads (Cell:Bead=4:1). To evaluate the purity of sorted Tregs, cells were stained with anti-Foxp3 and anti-Helios (Biolegend) in Foxp3-staining buffer (eBioscience). All flow cytometry was performed on a FACS LSRII flow cytometer (Becton Dickinson) and analyzed with FlowJo software (TreeStar).
Initially, two potential candidates were selected for testing: TGFβ, and the toll-like receptor 9 (TLR9) agonist CpG oligodeoxynucleotide (ODN). […]

| Compound | effect on the stabilization of Foxp3+Helios+ T cells (TLR 7 / TLR 8 agonists at 10 μM compared with CpG ODN (FIG. 6B)) | stabilization / increase of the Foxp3+Helios+ population, single agents (CD4+CD25+ cells, 5 days with agent alone, then 7 days without (FIG. 2B)) |
| --- | --- | --- |
| CCCCNc1nc(N)c2[nH]c(=O)n(Cc3ccc(C(=O)NCC(=O)O)cc3)c2n1 [CL264] | Neither the TLR 8 nor the TLR 7 agonists had any effect | – |
| TGFβ: TGFβ, candidate factor added at 5 ng/ml during Treg stimulation | – | modest increase |
